Measurements: ChEMBL document CHEMBL5543155, “Design, Synthesis, and Biological Evaluation of β-Trifluoroethoxydimethyl Selenides as Potent Antiosteoporosis Agents” (J Med Chem, 2024)
The source made the active and inactive calls. No cut-off for these calls is given here.

What was measured:
RAW264.7 [1] = assay: Cytotoxicity against mouse RAW264.7 cells assessed as cell destruction at 5 uM incubated for 48 hrs by MTT assay; format: toxicity, cell-based; conditions: raw264.7, 48 h
RAW264.7 [2] = assay: Inhibition of RANKL-induced osteoclast differentiation in mouse RAW264.7 cells at 5 uM incubated for 4 days with media replacement for every 2 days by TRAP-staining based light microscopic analysis; format: functional, cell-based; conditions: time 4.0 day
BMMC [3] = assay: Anti-osteoclastogenesis activity in M-CSF/RANKL-induced C57BL/6 mouse BMMC cells assessed as reduction in size of TRAP-positive osteoclasts at 0 to 10 uM incubated for 6 days with media replacement for every 2 days by TRAP-staining based light microscopic analysis; format: functional, cell-based; conditions: dose 0-10 µM, time 6.0 day
BMMC [4] = assay: Cytotoxicity against C57BL/6 mouse BMMC cells assessed as reduction in cell viability at 30 uM incubated for 48 hrs by MTT assay; format: toxicity, cell-based
BMMC [5] = assay: Anti-osteoclastogenesis activity in M-CSF/RANKL-induced C57BL/6 mouse BMMC cells assessed as downregulation of C-Fos gene expression incubated for 5 days by qRT-PCR analysis; format: functional, cell-based; conditions: dose 0-10 µM, time 5.0 day
BMMC [6] = assay: Anti-osteoclastogenesis activity in M-CSF/RANKL-induced C57BL/6 mouse BMMC cells assessed as downregulation of NFATc1 gene expression incubated for 5 days by qRT-PCR analysis; format: functional, cell-based; conditions: dose 0-10 µM, time 5.0 day
BMMC [7] = assay: Anti-osteoclastogenesis activity in M-CSF/RANKL-induced C57BL/6 mouse BMMC cells assessed as downregulation of cathepsin K gene expression incubated for 5 days by qRT-PCR analysis; format: functional, cell-based; conditions: dose 0-10 µM, time 5.0 day
[8] = target: c-Jun N-terminal kinase (Mus musculus) (UniProt Q91Y86+Q9WTU6+Q61831); assay: Inhibition of JNK phosphorylation in RANKL-induced C57BL/6 mouse BMMC cells at 5 uM pretreated for 6 hrs followed by RANKL stimulation and measured upto 60 mins by Western blot analysis; format: cell-based; conditions: time <= 7.0 hrs
BMMC [9] = assay: Effect on total ERK protein expression in RANKL-induced C57BL/6 mouse BMMC cells at 5 uM pretreated for 6 hrs followed by RANKL stimulation and measured upto 60 mins by Western blot analysis; format: functional, cell-based; conditions: time <= 7.0 hrs
BMMC [10] = assay: Effect on total JNK protein expression in RANKL-induced C57BL/6 mouse BMMC cells at 5 uM pretreated for 6 hrs followed by RANKL stimulation and measured upto 60 mins by Western blot analysis; format: functional, cell-based; conditions: time <= 7.0 hrs
BMMC [11] = assay: Effect on total p38 protein expression in RANKL-induced C57BL/6 mouse BMMC cells at 5 uM pretreated for 6 hrs followed by RANKL stimulation and measured upto 60 mins by Western blot analysis; format: functional, cell-based; conditions: time <= 7.0 hrs
BMMC [12] = assay: Effect on total p65 protein expression in RANKL-induced C57BL/6 mouse BMMC cells at 5 uM pretreated for 6 hrs followed by RANKL stimulation and measured upto 60 mins by Western blot analysis; format: functional, cell-based; conditions: time <= 7.0 hrs
[13] = target: Transcription factor p65 (Mus musculus) (UniProt Q04207); assay: Inhibition of p65 phosphorylation in RANKL-induced C57BL/6 mouse BMMC cells at 5 uM pretreated for 6 hrs followed by RANKL stimulation and measured upto 60 mins by Western blot analysis; format: cell-based; conditions: time <= 7.0 hrs
[14] = target: T1, NF-kappa-B inhibitor alpha (Mus musculus) (UniProt Q9Z1E3); assay: Inhibition of RANKL-induced IkappaBalpha degradation in C57BL/6 mouse BMMC cells at 5 uM pretreated for 6 hrs followed by RANKL stimulation and measured upto 60 mins by Western blot analysis; format: cell-based; conditions: time <= 7.0 hrs
T1 sequence (whole entry): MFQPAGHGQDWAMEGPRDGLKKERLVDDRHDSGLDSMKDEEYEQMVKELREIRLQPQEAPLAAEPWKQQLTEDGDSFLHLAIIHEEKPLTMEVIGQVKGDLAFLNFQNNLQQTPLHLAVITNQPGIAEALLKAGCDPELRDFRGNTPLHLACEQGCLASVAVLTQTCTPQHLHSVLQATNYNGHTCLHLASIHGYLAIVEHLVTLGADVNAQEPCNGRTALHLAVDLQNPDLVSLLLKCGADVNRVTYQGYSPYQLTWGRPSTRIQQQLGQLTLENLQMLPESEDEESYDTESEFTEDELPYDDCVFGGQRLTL

MC3T3-E1 [15] = assay: Induction of osteoblast differentiation in mouse MC3T3-E1 cells assessed as increase in ALP activity measured after 7 days by ALP staining based inverted microscopic analysis; format: functional, cell-based; conditions: dose 2.5-10 µM, time 7.0 day
MC3T3-E1 [16] = assay: Induction of osteoblast differentiation in mouse MC3T3-E1 cells assessed as bone formation by measuring increase in BMP2 protein expression measured after 7 days by Western blot analysis; format: functional, cell-based; conditions: dose 2.5-10 µM, time 7.0 day
MC3T3-E1 [17] = assay: Induction of osteoblast differentiation in mouse MC3T3-E1 cells assessed as bone formation by measuring increase in Smad protein expression measured after 7 days by Western blot analysis; format: functional, cell-based; conditions: dose 2.5-10 µM, time 7.0 day
[18] = Toxicity in OVX osteoporotic C57BL/6 mouse assessed as body weight loss at 10 mg/kg, ip administered every other day for 8 weeks and measured every week; format: organism-based; conditions: in vivo, 1344 h
[19] = Toxicity in OVX osteoporotic C57BL/6 mouse assessed as effect on size and surface gloss of liver at 10 mg/kg, ip administered every other day for 8 weeks by H and E staining based analysis; format: organism-based; conditions: in vivo, 1344 h
[20] = Toxicity in OVX osteoporotic C57BL/6 mouse assessed as effect on size and surface gloss of spleen at 10 mg/kg, ip administered every other day for 8 weeks by H and E staining based analysis; format: organism-based; conditions: in vivo, 1344 h
[21] = Toxicity in OVX osteoporotic C57BL/6 mouse assessed as effect on size and surface gloss of lung at 10 mg/kg, ip administered every other day for 8 weeks by H and E staining based analysis; format: organism-based; conditions: in vivo, 1344 h
Mus musculus [22] = assay: Anti-osteoporosis activity in ovariectomized C57BL/6 mouse assessed as reduction in bone loss by measuring increase in bone volume/total bone volume (BV/TV) at 10 mg/kg, ip administered every other day for 8 weeks by micro-CT analysis; format: functional, organism-based
Mus musculus [23] = assay: Anti-osteoporosis activity in ovariectomized C57BL/6 mouse assessed as reduction in bone loss by measuring increase in trabecular number at 10 mg/kg, ip administered every other day for 8 weeks by micro-CT analysis; format: functional, organism-based
[24] = target: T2, Tumor necrosis factor ligand superfamily member 11 (Mus musculus) (UniProt O35235); assay: Binding affinity to mouse RANKL assessed as increase in resonance units measured upto 240 mins by SPR analysis; conditions: dose 15.63-500 µM
T2 sequence (whole entry): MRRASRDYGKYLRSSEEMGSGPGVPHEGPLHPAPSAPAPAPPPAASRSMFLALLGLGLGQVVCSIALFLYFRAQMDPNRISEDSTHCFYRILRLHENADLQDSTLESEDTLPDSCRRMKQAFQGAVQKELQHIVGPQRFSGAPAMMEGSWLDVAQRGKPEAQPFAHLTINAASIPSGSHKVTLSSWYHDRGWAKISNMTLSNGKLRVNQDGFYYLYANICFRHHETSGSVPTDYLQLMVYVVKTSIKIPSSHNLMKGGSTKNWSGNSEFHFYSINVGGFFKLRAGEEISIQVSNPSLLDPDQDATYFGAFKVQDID

[25] = target: T3, Tumor necrosis factor ligand superfamily member 11 (Mus musculus, UniProt O35235); assay: Binding affinity to mouse RANKL assessed as dissociation constant by SPR analysis
T3 sequence (O35235 whole entry): T2 sequence (whole entry)

Transcription factor p65 (Mus musculus), sequence (Q04207 whole entry): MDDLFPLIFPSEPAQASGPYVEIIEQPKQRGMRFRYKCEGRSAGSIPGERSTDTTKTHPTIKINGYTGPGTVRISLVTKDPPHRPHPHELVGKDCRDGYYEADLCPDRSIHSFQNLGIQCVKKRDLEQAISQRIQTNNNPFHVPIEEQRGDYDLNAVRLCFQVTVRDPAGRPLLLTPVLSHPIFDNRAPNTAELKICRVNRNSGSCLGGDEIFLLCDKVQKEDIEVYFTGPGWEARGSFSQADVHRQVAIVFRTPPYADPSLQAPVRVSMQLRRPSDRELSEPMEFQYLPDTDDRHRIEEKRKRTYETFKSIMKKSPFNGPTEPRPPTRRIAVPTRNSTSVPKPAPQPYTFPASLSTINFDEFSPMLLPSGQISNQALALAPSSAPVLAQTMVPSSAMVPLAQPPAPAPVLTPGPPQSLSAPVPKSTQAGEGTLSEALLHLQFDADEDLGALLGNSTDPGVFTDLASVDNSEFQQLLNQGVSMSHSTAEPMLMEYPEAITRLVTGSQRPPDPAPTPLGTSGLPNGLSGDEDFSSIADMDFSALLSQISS
c-Jun N-terminal kinase (Mus musculus), sequence (Q61831 whole entry, looked up): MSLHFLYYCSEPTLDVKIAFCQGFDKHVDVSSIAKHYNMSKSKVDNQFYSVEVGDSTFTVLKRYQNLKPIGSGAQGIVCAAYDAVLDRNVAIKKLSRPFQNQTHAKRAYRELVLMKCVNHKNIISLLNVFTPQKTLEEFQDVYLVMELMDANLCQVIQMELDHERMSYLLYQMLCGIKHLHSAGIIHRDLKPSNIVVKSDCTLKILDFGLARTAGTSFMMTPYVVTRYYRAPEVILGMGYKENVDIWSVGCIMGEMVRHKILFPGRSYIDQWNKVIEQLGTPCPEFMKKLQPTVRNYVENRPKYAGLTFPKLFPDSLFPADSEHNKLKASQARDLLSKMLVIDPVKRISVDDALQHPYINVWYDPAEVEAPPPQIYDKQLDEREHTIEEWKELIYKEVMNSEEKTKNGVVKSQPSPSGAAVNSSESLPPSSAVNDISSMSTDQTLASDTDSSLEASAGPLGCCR
c-Jun N-terminal kinase (Mus musculus), sequence (Q91Y86 whole entry, looked up): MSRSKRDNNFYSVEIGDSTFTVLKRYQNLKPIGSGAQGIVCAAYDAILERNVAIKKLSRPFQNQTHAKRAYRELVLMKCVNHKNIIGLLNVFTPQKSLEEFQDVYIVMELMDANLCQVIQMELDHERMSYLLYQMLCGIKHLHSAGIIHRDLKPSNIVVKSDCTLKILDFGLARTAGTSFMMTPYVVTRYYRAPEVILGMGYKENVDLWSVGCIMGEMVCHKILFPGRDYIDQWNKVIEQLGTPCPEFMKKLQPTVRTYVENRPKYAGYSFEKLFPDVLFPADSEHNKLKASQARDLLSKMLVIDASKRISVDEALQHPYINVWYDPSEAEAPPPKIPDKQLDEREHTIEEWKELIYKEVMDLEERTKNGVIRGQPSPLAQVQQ
c-Jun N-terminal kinase (Mus musculus), sequence (Q9WTU6 whole entry, looked up): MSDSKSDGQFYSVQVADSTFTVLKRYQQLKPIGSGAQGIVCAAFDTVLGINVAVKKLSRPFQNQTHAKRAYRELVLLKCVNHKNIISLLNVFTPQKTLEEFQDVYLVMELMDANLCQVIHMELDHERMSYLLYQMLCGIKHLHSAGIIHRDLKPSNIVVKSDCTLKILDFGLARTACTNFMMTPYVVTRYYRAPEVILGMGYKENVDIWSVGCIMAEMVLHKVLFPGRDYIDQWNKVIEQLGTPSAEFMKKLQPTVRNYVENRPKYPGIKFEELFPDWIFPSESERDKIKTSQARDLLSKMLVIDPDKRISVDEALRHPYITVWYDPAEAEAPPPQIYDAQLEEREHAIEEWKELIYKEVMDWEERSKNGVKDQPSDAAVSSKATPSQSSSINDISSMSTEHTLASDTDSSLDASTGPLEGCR

With `CC(C)(OCC(F)(F)F)C([Se]c1ccccc1)C(=O)Nc1ccncc1` (stereo not given) the Activity (RAW264.7 [1]) was “Non-Toxic”, the inhibition (RAW264.7 [2]) was “Active” and the Activity (BMMC [3]) was “Active”. The Activity (BMMC [4]) was “Non-Toxic”, the Activity (BMMC [5]) was “Dose-Dependent Effect” and the Activity (BMMC [6]) was “Dose-Dependent Effect”. The Activity (BMMC [7]) was “Dose-Dependent Effect”, the inhibition [8] was “Active” and the Activity (BMMC [9]) was “inactive”. The Activity (BMMC [10]) was “inactive”, the Activity (BMMC [11]) was “inactive” and the Activity (BMMC [12]) was “inactive”. The inhibition [13] was “Active”, the inhibition [14] was “Active” and the Activity (MC3T3-E1 [15]) was “Dose-Dependent Effect”. For the same compound, the Activity (MC3T3-E1 [16]) was “Dose-Dependent Effect”, the Activity (MC3T3-E1 [17]) was “Dose-Dependent Effect” and the Activity [18] was “Non-Toxic”. The Activity [19] was “Non-Toxic”, the Activity [20] was “Non-Toxic” and the Activity [21] was “Non-Toxic”. For the same compound, the Activity (Mus musculus [22]) was “Active”, the Activity (Mus musculus [23]) was “Active” and the Activity [24] was “Active”. For the same compound, the Kd [25] was 268 µM.
